Compound: CC(C)(C)c1cc(NC(=O)Nc2ccc(-c3cn4c(n3)sc3cc(OCCN5CCOCC5)ccc34)cc2)no1 [Quizartinib] + O=C(CCCCCCC(=O)Nc1ccccc1)NO [Vorinostat] (partner 1 µM)
Experiment: relative viability (nuclei count vs DMSO), 5 days (fraction); higher = more cells survive
Settings: first compound 0.001 µM
How it was run: (§1)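 Lung cancer cell lines were seeded in 1536-well plates and dosed by pin tool the next day, with either a single drug or a fixed anchor-drug dose combined with five library-drug doses (not always all listed) spaced in √10 steps. Five days later, one step fixed the cells and stained their nuclei (final 0.05% Triton X-100, 1% formaldehyde, 1 ug/ml Hoechst), and nuclei were counted on 4× images. Relative viability is the nuclei count in treated wells divided by the count in vehicle wells, and each value is the median of duplicate plates.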

Row | Cell Line | relative viability
1 | NCI-H1650 | 0.499
2 | COR-L23 | 0.387
3 | NCI-H2085 | 0.694
4 | BEN | 0.533
5 | PC-3 [JPC-3] | 0.758
6 | LC-2-ad | 0.603
7 | NCI-H522 | 0.803

Same assay, conditions: first compound 0.003162 µM

Row | Cell Line | relative viability
8 | NCI-H1650 | 0.581
9 | ChaGo-K-1 | 0.709
10 | COR-L23 | 0.355
11 | NCI-H2085 | 0.784
12 | NCI-H460 | 0.734
13 | BEN | 0.532
14 | PC-3 [JPC-3] | 0.889
15 | LC-2-ad | 0.688
16 | NCI-H522 | 0.849

Same assay, conditions: first compound 0.01 µM

Row | Cell Line | relative viability
17 | NCI-H1650 | 0.635
18 | ChaGo-K-1 | 0.758
19 | COR-L23 | 0.507
20 | NCI-H2085 | 0.791
21 | NCI-H460 | 0.687
22 | BEN | 0.565
23 | PC-3 [JPC-3] | 0.55
24 | LC-2-ad | 0.733
25 | NCI-H522 | 0.818

Same assay, conditions: first compound 0.03162 µM

Row | Cell Line | relative viability
26 | ChaGo-K-1 | 0.719
27 | COR-L23 | 0.385
28 | NCI-H2085 | 0.796
29 | BEN | 0.56
30 | PC-3 [JPC-3] | 0.596
31 | LC-2-ad | 0.681
32 | NCI-H522 | 0.874

Same assay, conditions: first compound 0.1 µM

Row | Cell Line | relative viability
33 | NCI-H1650 | 0.445
34 | ChaGo-K-1 | 0.773
35 | COR-L23 | 0.504
36 | NCI-H2085 | 0.733
37 | NCI-H460 | 0.566
38 | BEN | 0.602
39 | PC-3 [JPC-3] | 0.912
40 | LC-2-ad | 0.694
41 | NCI-H522 | 0.834

Compound: CC(C)(C)c1cc(NC(=O)Nc2ccc(-c3cn4c(n3)sc3cc(OCCN5CCOCC5)ccc34)cc2)no1 [Quizartinib] + CCNC(=O)c1noc(-c2cc(C(C)C)c(O)cc2O)c1-c1ccc(CN2CCOCC2)cc1 [Luminespib] (partner 0.01 µM)
Experiment: as above
Settings: first compound 0.001 µM
How it was run: as §1

Row | Cell Line | relative viability
42 | NCI-H1650 | 0.185
43 | ChaGo-K-1 | 0.522
44 | COR-L23 | 0.653
45 | NCI-H2085 | 0.403
46 | NCI-H460 | 0.0338
47 | BEN | 0.421
48 | PC-3 [JPC-3] | 0.556
49 | LC-2-ad | 0.938
50 | NCI-H522 | 1.11

Same assay, conditions: first compound 0.003162 µM

Row | Cell Line | relative viability
51 | NCI-H1650 | 0.182
52 | ChaGo-K-1 | 0.635
53 | COR-L23 | 0.613
54 | NCI-H2085 | 0.391
55 | NCI-H460 | 0.0373
56 | BEN | 0.33
57 | PC-3 [JPC-3] | 0.676
58 | LC-2-ad | 1.07
59 | NCI-H522 | 1.07

Same assay, conditions: first compound 0.01 µM

Row | Cell Line | relative viability
60 | NCI-H1650 | 0.19
61 | ChaGo-K-1 | 0.682
62 | COR-L23 | 0.773
63 | NCI-H2085 | 0.454
64 | NCI-H460 | 0.0292
65 | BEN | 0.307
66 | PC-3 [JPC-3] | 0.808
67 | LC-2-ad | 0.945
68 | NCI-H522 | 0.892

Same assay, conditions: first compound 0.03162 µM

Row | Cell Line | relative viability
69 | ChaGo-K-1 | 0.625
70 | COR-L23 | 0.439
71 | NCI-H2085 | 0.419
72 | NCI-H460 | 0.0246
73 | BEN | 0.384
74 | PC-3 [JPC-3] | 0.733
75 | NCI-H522 | 1.1

Same assay, conditions: first compound 0.1 µM

Row | Cell Line | relative viability
76 | NCI-H1650 | 0.172
77 | ChaGo-K-1 | 0.601
78 | COR-L23 | 0.668
79 | NCI-H2085 | 0.393
80 | NCI-H460 | 0.0321
81 | BEN | 0.214
82 | PC-3 [JPC-3] | 0.724
83 | LC-2-ad | 0.985
84 | NCI-H522 | 1.47

Compound: CC(C)(C)c1cc(NC(=O)Nc2ccc(-c3cn4c(n3)sc3cc(OCCN5CCOCC5)ccc34)cc2)no1 [Quizartinib] + Cc1nc(Nc2ncc(C(=O)Nc3c(C)cccc3Cl)s2)cc(N2CCN(CCO)CC2)n1 [Dasatinib] (partner 0.075 µM)
Experiment: as above
Settings: first compound 0.001 µM
How it was run: as §1

Row | Cell Line | relative viability
85 | NCI-H1650 | 0.283
86 | ChaGo-K-1 | 0.595
87 | COR-L23 | 0.452
88 | NCI-H2085 | 0.282
89 | NCI-H460 | 0.481
90 | BEN | 0.292
91 | PC-3 [JPC-3] | 0.925
92 | LC-2-ad | 0.48
93 | NCI-H522 | 0.861

Same assay, conditions: first compound 0.003162 µM

Row | Cell Line | relative viability
94 | NCI-H1650 | 0.328
95 | ChaGo-K-1 | 0.543
96 | COR-L23 | 0.437
97 | NCI-H2085 | 0.237
98 | NCI-H460 | 0.551
99 | BEN | 0.335
100 | PC-3 [JPC-3] | 0.967
101 | LC-2-ad | 0.799
102 | NCI-H522 | 0.861

Same assay, conditions: first compound 0.01 µM

Row | Cell Line | relative viability
103 | NCI-H1650 | 0.298
104 | ChaGo-K-1 | 0.588
105 | COR-L23 | 0.557
106 | NCI-H2085 | 0.253
107 | NCI-H460 | 0.413
108 | BEN | 0.347
109 | PC-3 [JPC-3] | 1.09
110 | LC-2-ad | 0.546
111 | NCI-H522 | 1.11

Same assay, conditions: first compound 0.03162 µM

Row | Cell Line | relative viability
112 | ChaGo-K-1 | 0.606
113 | COR-L23 | 0.414
114 | NCI-H2085 | 0.231
115 | NCI-H460 | 0.307
116 | BEN | 0.257
117 | PC-3 [JPC-3] | 1.01
118 | NCI-H522 | 0.794

Same assay, conditions: first compound 0.1 µM

Row | Cell Line | relative viability
119 | NCI-H1650 | 0.245
120 | ChaGo-K-1 | 0.56
121 | COR-L23 | 0.461
122 | NCI-H2085 | 0.236
123 | NCI-H460 | 0.422
124 | BEN | 0.318
125 | PC-3 [JPC-3] | 1.03
126 | LC-2-ad | 0.5
127 | NCI-H522 | 0.882

Compound: COCC[n+]1c2c(n(Cc3cnccn3)c1C)C(=O)c1ccccc1C2=O [YM155] + Cc1cc(Nc2cc(N3CCN(C)CC3)nc(Sc3ccc(NC(=O)C4CC4)cc3)n2)n[nH]1 [Tozasertib] (partner 0.1 µM)
Experiment: as above
Settings: first compound 0.002 µM
How it was run: as §1

Row | Cell Line | relative viability
128 | NCI-H1650 | 0.33
129 | ChaGo-K-1 | 0.22
130 | COR-L23 | 0.201
131 | NCI-H2085 | 0.794
132 | NCI-H460 | 0.604
133 | BEN | 0.565
134 | PC-3 [JPC-3] | 0.879
135 | LC-2-ad | 0.469
136 | NCI-H522 | 0.522

Same assay, conditions: first compound 0.006325 µM

Row | Cell Line | relative viability
137 | NCI-H1650 | 0.468
138 | ChaGo-K-1 | 0.208
139 | COR-L23 | 0.175
140 | NCI-H2085 | 0.804
141 | NCI-H460 | 0.468
142 | BEN | 0.518
143 | PC-3 [JPC-3] | 0.984
144 | LC-2-ad | 0.425
145 | NCI-H522 | 0.557

Same assay, conditions: first compound 0.02 µM

Row | Cell Line | relative viability
146 | NCI-H1650 | 0.485
147 | ChaGo-K-1 | 0.24
148 | COR-L23 | 0.133
149 | NCI-H2085 | 0.867
150 | NCI-H460 | 0.535
151 | BEN | 0.587
152 | PC-3 [JPC-3] | 0.869
153 | LC-2-ad | 0.438
154 | NCI-H522 | 0.599

Same assay, conditions: first compound 0.06325 µM

Row | Cell Line | relative viability
155 | NCI-H1650 | 0.266
156 | ChaGo-K-1 | 0.236
157 | COR-L23 | 0.126
158 | NCI-H2085 | 0.77
159 | NCI-H460 | 0.413
160 | BEN | 0.581
161 | PC-3 [JPC-3] | 0.941
162 | LC-2-ad | 0.299
163 | NCI-H522 | 0.582
